Inconclusive results and toxic doses are left out. Rule as the data show it: active = T/C of 150% or more; inactive = T/C below 125%.
Test system: L1210 leukemia ip in BDF1 mice, survival T/C
Assay: NCI In Vivo Anticancer Drug Screen. Data for tumor model L1210 Leukemia (intraperitoneal) in B6D2F1 (BDF1) mice
Conditions: endpoint: mean survival time, higher = longer survival
How it was run: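 Each compound was tested against a transplantable tumor grown in mice. The endpoint was survival, with treated animals benchmarked against vehicle controls as a simple ratio.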

[1] = dose: 100.0 mg/kg/injection, schedule: Q04DX002 (ip), vehicle: Klucel (hydroxypropylcellulose) (HPC)
[2] = dose: 200.0 mg/kg/injection, schedule: Q04DX002 (ip), vehicle: Klucel (hydroxypropylcellulose) (HPC)
[3] = dose: 100.0 mg/kg/injection, schedule: Q01DX001 (ip), vehicle: other
[4] = dose: 100.0 mg/kg/injection, schedule: Q04DX003 (ip), vehicle: saline with Tween-80
[5] = dose: 200.0 mg/kg/injection, schedule: Q01DX001 (ip), vehicle: other
[6] = dose: 200.0 mg/kg/injection, schedule: Q04DX003 (ip), vehicle: saline with Tween-80
[7] = dose: 400.0 mg/kg/injection, schedule: Q01DX001 (ip), vehicle: other
[8] = dose: 400.0 mg/kg/injection, schedule: Q04DX003 (ip), vehicle: saline with Tween-80
[9] = dose: 100.0 mg/kg/injection, schedule: Q01DX009 (ip), vehicle: Klucel (hydroxypropylcellulose) (HPC)
[10] = dose: 100.0 mg/kg/injection, schedule: Q04DX003 (ip), vehicle: Klucel (hydroxypropylcellulose) (HPC)
[11] = dose: 200.0 mg/kg/injection, schedule: Q01DX009 (ip), vehicle: Klucel (hydroxypropylcellulose) (HPC)
[12] = dose: 200.0 mg/kg/injection, schedule: Q04DX003 (ip), vehicle: Klucel (hydroxypropylcellulose) (HPC)
[13] = dose: 400.0 mg/kg/injection, schedule: Q01DX009 (ip), vehicle: Klucel (hydroxypropylcellulose) (HPC)
[14] = dose: 400.0 mg/kg/injection, schedule: Q04DX003 (ip), vehicle: Klucel (hydroxypropylcellulose) (HPC)
[15] = dose: 12.5 mg/kg/injection, schedule: Q01DX009 (ip), vehicle: saline
[16] = dose: 25.0 mg/kg/injection, schedule: Q01DX009 (ip), vehicle: saline
[17] = dose: 50.0 mg/kg/injection, schedule: Q01DX009 (ip), vehicle: saline
[18] = dose: 100.0 mg/kg/injection, schedule: Q01DX009 (ip), vehicle: saline
[19] = dose: 50.0 mg/kg/injection, schedule: Q01DX001 (ip), vehicle: carboxymethylcellulose (CMC)
[20] = dose: 100.0 mg/kg/injection, schedule: Q04DX003 (ip), vehicle: saline

Measured: T/C

O=c1[nH]c(CCCc2ccccc2)c(Br)c(=O)[nH]1
inactive: [1] 100 % of control | [2] 100 % of control | dose: 400.0 mg/kg/injection, schedule: Q04DX002 (ip), vehicle: Klucel (hydroxypropylcellulose) (HPC) 92 % of control

NC(=O)Oc1ccc(C2CC(=O)C(C(N)=O)C(=O)C2)cc1 (stereo not given)
inactive: [3] 97 % of control | [4] 108 % of control | [5] 92 % of control | [6] 103 % of control | [7] 94 % of control | [8] 100 % of control

CCCCNC(=O)C(C)S(=O)(=O)c1ccc(N)cc1 (stereo not given)
inactive: [4] 98 % of control | [6] 96 % of control | [8] 102 % of control

Brc1c(-c2ccccc2)cc(-c2ccccc2)cc1-c1ccccc1
inactive: [9] 93 % of control | [10] 91 % of control | [11] 93 % of control | [12] 93 % of control | [13] 96 % of control | [14] 91 % of control

COc1ccccc1OCCOCCNC1CC2CCC1(C)C2(C)C (stereo not given)
inactive: [10] 88 % of control

C=CC(=O)c1c(O)cc(O)c2c1C(C)C(=O)O2 (stereo not given)
inactive: dose: 50.0 mg/kg/injection, schedule: Q01DX001 (ip), vehicle: saline 104 % of control | dose: 75.0 mg/kg/injection, schedule: Q01DX009 (ip), vehicle: Klucel (hydroxypropylcellulose) (HPC) 89 % of control | dose: 100.0 mg/kg/injection, schedule: Q01DX001 (ip), vehicle: saline 101 % of control | [10] 106 % of control | dose: 200.0 mg/kg/injection, schedule: Q01DX001 (ip), vehicle: saline 104 % of control

COC(OC)c1nc(SC)[nH]c(=O)c1C[N+](C)(C)C
inactive: dose: 100.0 mg/kg/injection, schedule: Q01DX009 (ip), vehicle: saline with Tween-80 102 % of control | [4] 96 % of control | dose: 200.0 mg/kg/injection, schedule: Q01DX009 (ip), vehicle: saline with Tween-80 92 % of control | [6] 94 % of control | [8] 91 % of control

O=C(O)C1=C/C(=C\C=[N+]2c3cc(O)c(OC4OC(CO)C(O)C(O)C4O)cc3CC2C(=O)[O-])CC(C(=O)O)N1 (stereo not given)
inactive: [4] 97 % of control | [6] 94 % of control | [8] 95 % of control

S=C=NCc1ccc(Br)cc1
inactive: dose: 1.25 mg/kg/injection, schedule: Q01DX009 (ip), vehicle: other 95 % of control | dose: 2.5 mg/kg/injection, schedule: Q01DX009 (ip), vehicle: other 100 % of control | dose: 2.5 mg/kg/injection, schedule: Q04DX003 (ip), vehicle: other 103 % of control | dose: 5.0 mg/kg/injection, schedule: Q01DX009 (ip), vehicle: other 97 % of control | dose: 5.0 mg/kg/injection, schedule: Q04DX003 (ip), vehicle: other 103 % of control | dose: 10.0 mg/kg/injection, schedule: Q01DX001 (ip), vehicle: other 93 % of control | dose: 10.0 mg/kg/injection, schedule: Q04DX003 (ip), vehicle: other 88 % of control

Cn1c(=O)c(Br)c(N)c2ccccc21
inactive: [3] 101 % of control | [5] 101 % of control | [7] 101 % of control

O=C1CC2(C(=O)N1c1ccccc1)C1C(=O)N(c3ccccc3)C(=O)C1C1C3C(=CCC4C(=O)N(c5ccccc5)C(=O)C43)C=CN12 (stereo not given)
inactive: dose: 100.0 mg/kg/injection, schedule: Q04DX002 (ip), vehicle: saline with Tween-80 105 % of control | dose: 200.0 mg/kg/injection, schedule: Q04DX002 (ip), vehicle: saline with Tween-80 98 % of control | dose: 400.0 mg/kg/injection, schedule: Q04DX002 (ip), vehicle: saline with Tween-80 102 % of control

Cc1ccc(S(=O)(=O)N/N=C2/CC3CCCCCCC23)cc1 (stereo not given)
inactive: dose: 50.0 mg/kg/injection, schedule: Q04DX002 (ip), vehicle: Klucel (hydroxypropylcellulose) (HPC) 104 % of control | [1] 97 % of control | [2] 111 % of control

CP1(=O)CC2OC23CCCCC31 (stereo not given)
inactive: [15] 98 % of control | [16] 98 % of control | [17] 102 % of control | dose: 100.0 mg/kg/injection, schedule: Q01DX009 (ip), vehicle: other 109 % of control | [18] 89 % of control | dose: 200.0 mg/kg/injection, schedule: Q01DX009 (ip), vehicle: other 114 % of control

CCC1(/C(C)=C/C(C)C)C(=O)NC(=O)NC1=O
inactive: dose: 5.0 mg/kg/injection, schedule: Q01DX001 (ip), vehicle: saline 96 % of control | dose: 10.0 mg/kg/injection, schedule: Q01DX001 (ip), vehicle: saline 101 % of control

Nc1ncnc2cc(O)[nH]c12
inactive: [19] 107 % of control | dose: 100.0 mg/kg/injection, schedule: Q01DX001 (ip), vehicle: carboxymethylcellulose (CMC) 104 % of control

Cc1cccc(NC(=O)c2ccc(Cl)cc2)c1C
inactive: [9] 99 % of control | [20] 111 % of control | [11] 95 % of control | dose: 200.0 mg/kg/injection, schedule: Q04DX003 (ip), vehicle: saline 104 % of control | [13] 95 % of control | dose: 400.0 mg/kg/injection, schedule: Q04DX003 (ip), vehicle: saline 109 % of control

N#CCNC(=O)c1ccccc1
inactive: dose: 12.5 mg/kg/injection, schedule: Q01DX009 (ip), vehicle: Klucel (hydroxypropylcellulose) (HPC) 101 % of control | dose: 25.0 mg/kg/injection, schedule: Q01DX009 (ip), vehicle: Klucel (hydroxypropylcellulose) (HPC) 104 % of control | dose: 25.0 mg/kg/injection, schedule: Q04DX003 (ip), vehicle: Klucel (hydroxypropylcellulose) (HPC) 98 % of control | dose: 50.0 mg/kg/injection, schedule: Q01DX009 (ip), vehicle: Klucel (hydroxypropylcellulose) (HPC) 102 % of control | dose: 50.0 mg/kg/injection, schedule: Q04DX003 (ip), vehicle: Klucel (hydroxypropylcellulose) (HPC) 98 % of control

CN1CCN=C(c2ccccc2)c2cc(Cl)ccc21
inactive: dose: 6.25 mg/kg/injection, schedule: Q01DX009 (ip), vehicle: saline 110 % of control | [15] 101 % of control | [16] 94 % of control | dose: 25.0 mg/kg/injection, schedule: Q04DX003 (ip), vehicle: saline 93 % of control | [17] 100 % of control | dose: 50.0 mg/kg/injection, schedule: Q04DX003 (ip), vehicle: saline 93 % of control | [18] 95 % of control | [20] 98 % of control

O=C(O)/C=C/C(=O)c1ccccc1
inactive: [19] 109 % of control

CCCCCCCCOC(=O)CC
inactive: dose: 100.0 mg/kg/injection, schedule: Q04DX002 (ip), vehicle: saline 111 % of control | dose: 200.0 mg/kg/injection, schedule: Q04DX002 (ip), vehicle: saline 107 % of control | dose: 400.0 mg/kg/injection, schedule: Q04DX002 (ip), vehicle: saline 100 % of control

O=C1NC(=S)S/C1=C\c1c(Cl)cccc1Cl
inactive: dose: 75.0 mg/kg/injection, schedule: Q01DX001 (ip), vehicle: other 97 % of control

CC1(C)Cc2ccccc2C(c2nccc3ccccc23)=N1
inactive: [10] 106 % of control | [12] 118 % of control | [14] 102 % of control

Source: PubChem BioAssay AID248 (DTP/NCI, 2004)
